Experimental data from patent US10206907B2, “Compounds useful for the treatment of degenerative and inflammatory diseases” (GALAPAGOS NV, priority 2008, dated 2019).

Tests used:
[1] = test system: JAK-STAT signalling in HeLa cells; assay: JAK-STAT signalling assay (OSM-triggered pSTAT1(2)-luciferase reporter in HeLa cells); type: cell-based; settings: Homo sapiens; HeLa cells, OSM-triggered pSTAT1(2)-luciferase reporter; read-out: STAT signalling EC50
Summary of the method: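 Read-out is oncostatin M–driven pSTAT1(2)-luciferase activity, corrected by co-transfected LacZ β-galactosidase, in transiently transfected HeLa cells cultured overnight at 37 °C, 10% CO2. Inhibition percentages against positive and negative controls were plotted across doses to derive EC50.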

[2] = Microsomal stability, rat liver microsomes; type: in vitro ADME; settings: percentage of compound remaining after 60 minutes, 3 μM compound
Description: (§1) 40 μL of deionised water was added to a well of a polypropylene Matrix 2D barcode labelled storage tube (Thermo Scientific) and pre-incubated at 37° C.
(§2) A co-factor containing MgCl2, glucose-6-phosphate and NADP+ was prepared in deionised water and placed on ice before use.
(§3) A final working solution containing liver microsomes (Xenotech of a species of interest (human, mouse, rat, dog), previously described G6PDH and co-factors was prepared and this mix was incubated for no longer than 20 minutes at room temperature.
(§4) 30 μL of the pre-heated compound dilution was added to 40 μL of pre-heated water in the Matrix tubes and 30 μL of the microsomal mix was added.
(§5) To measure percentage remaining of compound at time zero MeOH or ACN was added (1:1) to the well before adding the microsomal mix.
(§6) The samples which were not stopped are incubated at 37° C., 300 rpm and after 1 hour of incubation the reaction was stopped with MeOH or ACN (1:1).
(§7) After stopping the reaction the samples were mixed and placed on ice for 30 min to precipitate the proteins.
(§8) The samples were analyzed on LCMS with a flow rate of 1 mL/min. Solvent A was 15 mM ammonia and solvent B was methanol or acetonitrile, depending on the stop solution used. […] The percentage remaining after 1 hour incubation was calculated from time 0 and was calculated as the percentage remaining.
(§9) The data on microsomal stability are expressed as a percentage of the total amount of compound remaining after 60 minutes.

[3] = Microsomal stability, human liver microsomes; type: in vitro ADME; settings: percentage of compound remaining after 60 minutes, 3 μM compound
Description: as §1, §2, §3, §4, §5, §6, §7, §8, §9

[4] = molecular target: Recombinant human JAK1 catalytic domain (Homo sapiens (Human), UniProt P23458); assay: JAK1 inhibition assay; type: biochemical; settings: semi-quantitative score
Summary of the method: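 IC50 values come from dose-response series, with each point expressed as percent inhibition of cpm. Vehicle sets full activity and 10 μM staurosporine sets background. Incorporated radioactivity counted by scintillation after washing with 75 mM phosphoric acid.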

MMP13 in SW1353 cells = assay: OSM/IL-1β signaling assay (MMP13 levels in SW1353 cells); type: cell-based; settings: Homo sapiens; SW1353 cells, OSM and IL-1β triggered, MMP13 levels 48 hours after triggering; read-out: MMP13 EC50;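 also: secreted MMP13 captured by antibody, activated with APMA and its activity read by fluorescence, inhibition scaled between vehicle-treated triggered wells (0%) and untriggered wells (100%)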
Description: The cells were seeded in 96 well plates at 15,000 cells/well in a volume of 120 μL DMEM (Invitrogen) containing 10% (v/v) FBS and 1% penicillin/streptomycin (InVitrogen) incubated at 37° C. […] MMP13 activity was measured using an antibody capture activity assay. […] Next the wells were washed twice with PBS+0.05% Tween followed by MMP13 activation by addition of 35 μL of a 1.5 mM 4-Aminophenylmercuric acetate (APMA) (Sigma, A9563) solution and incubation at 37° C. for 1 hour. […] Percentage inhibition=((fluorescence determined in the presence of vehicle−fluorescence determined for sample with test compound present) divided by (fluorescence determined in the presence of vehicle−fluorescence determined for sample without trigger))*100%.

[5] = molecular target: Recombinant human JAK2 catalytic domain (Homo sapiens (Human), UniProt O60674); assay: JAK2 inhibition assay; type: biochemical; settings: semi-quantitative score
Summary of the method: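 Activity was taken as vehicle cpm minus cpm with 10 μM staurosporine, and inhibition was expressed on that scale. Incubation was 90 min at 30 °C, followed by acid quench, phosphoric acid washes and Microscint counting. Compounds were tested as dose series to obtain IC50.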

Recombinant human JAK1 catalytic domain, sequence (P23458 850-1154): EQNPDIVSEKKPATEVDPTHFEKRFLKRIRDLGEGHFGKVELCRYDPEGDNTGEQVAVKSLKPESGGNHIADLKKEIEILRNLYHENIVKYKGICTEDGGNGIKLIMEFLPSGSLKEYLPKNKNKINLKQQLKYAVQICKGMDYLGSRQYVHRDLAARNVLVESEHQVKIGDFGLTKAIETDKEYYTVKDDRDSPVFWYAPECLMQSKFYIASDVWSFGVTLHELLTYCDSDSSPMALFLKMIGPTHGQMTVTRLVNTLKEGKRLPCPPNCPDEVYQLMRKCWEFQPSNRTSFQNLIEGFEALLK
Recombinant human JAK2 catalytic domain, sequence (O60674 808-1132): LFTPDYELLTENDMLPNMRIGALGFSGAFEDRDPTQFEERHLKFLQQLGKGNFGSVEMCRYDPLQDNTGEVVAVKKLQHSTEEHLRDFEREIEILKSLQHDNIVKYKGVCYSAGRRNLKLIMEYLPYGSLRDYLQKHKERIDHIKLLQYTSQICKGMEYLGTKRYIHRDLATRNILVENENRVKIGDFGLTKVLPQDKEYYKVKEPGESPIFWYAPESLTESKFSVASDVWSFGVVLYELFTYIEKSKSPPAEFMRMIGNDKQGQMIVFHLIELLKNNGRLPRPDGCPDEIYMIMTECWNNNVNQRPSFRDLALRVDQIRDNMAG

EC50 [1] [nM]	Microsomal Stability Rat (%) [2]	Microsomal Stability Human (%) [3]	IC50 [4] [nM]	EC50 (MMP13 in SW1353 cells) [nM]	IC50 [5] [nM]	SMILES
> 1000	** (** 26-50)	* (* 0-25)	< 100	> 1000		Cn1cc(-c2ccc(COc3ccc(-c4cccc5nc(NC(=O)C6CC6)nn45)cc3)cn2)cn1 [Compound 178]
101 to 500	*** (*** 51-75)	** (** 26-50)	< 100	> 1000		O=C(Nc1nc2cccc(-c3ccc(C(=O)N4CCC(c5cc6ccccc6[nH]5)CC4)cc3)n2n1)C1CC1 [Compound 138]
> 1000	**** (**** 76-100)	**** (**** 76-100)	< 100	> 1000		N#CC1(C(=O)Nc2ccc(-c3cccc4nc(NC(=O)C5CC5)nn34)cc2)CC1 [Compound 177, 1-cyano-N-(4-(2-(cyclopropanecarboxamido)-[1,2,4]triazolo[1,5-a]pyridin-5-yl)phenyl)cyclopropanecarbox-amide]
> 1000	* (* 0-25)	* (* 0-25)	< 100	> 1000		O=C(Nc1nc2cccc(-c3ccc(NCc4cccnc4)cc3)n2n1)C1CC1 [Compound 182, N-(5-(4-(pyridin-3-ylmethylamino)phenyl)-[1,2,4]triazolo[1,5-a]pyridin-2-yl)cyclopropanecarboxamide]
> 1000	* (* 0-25)	*** (*** 51-75)	< 100	> 1000		CN(C)CCN(Cc1ccccc1)C(=O)c1ccc(-c2cccc3nc(NC(=O)C4CC4)nn23)cc1 [Compound 150, N-benzyl-4-(2-(cyclopropanecarboxamido)-[1,2,4]triazolo[1,5-a]pyridin-5-yl)-N-(2-(dimethylamino)ethyl)benzamide]
> 1000	* (* 0-25)	* (* 0-25)	< 100			O=C(Nc1ccc(N2CCOCC2)nc1)c1ccc(-c2cccc3nc(NC(=O)C4CC4)nn23)cc1 [Compound 204, 4-[2-(Cyclopropanecarbonyl-amino)-[1,2,4]triazolo[1,5-a]pyridin-5-yl]-N-(6-morpholin-4-yl-pyridin-3-yl)-benzamide]
> 1000	* (* 0-25)	* (* 0-25)	< 100	> 1000		O=C(Nc1ccncc1)c1ccc(-c2cccc3nc(NC(=O)C4CC4)nn23)cc1 [Compound 25, 4-(2-(cyclopropanecarboxamido)-[1,2,4]triazolo[1,5-a]pyridin-5-yl)-N-(pyridin-4-yl)benzamide]
> 1000	* (* 0-25)	*** (*** 51-75)	< 100	> 1000		O=C(Nc1nc2cccc(-c3ccc(OCc4ccc(-c5cn[nH]c5)nc4)cc3)n2n1)C1CC1 [Compound 166]
> 1000	* (* 0-25)	* (* 0-25)	< 100	> 1000		COC(=O)c1ccc(COc2ccc(-c3cccc4nc(NC(=O)C5CC5)nn34)cc2)nc1 [Compound 190]
501 to 1000	**** (**** 76-100)	*** (*** 51-75)	< 100	> 1000		O=C(Nc1nc2cccc(-c3ccc(C(=O)N4CCC(F)CC4)cc3)n2n1)C1CC1 [Compound 137, N-(5-(4-(4-fluoropiperidine-1-carbonyl)phenyl)-[1,2,4]triazolo[1,5-a]pyridin-2-yl)cyclopropanecarboxamide]
> 1000	* (* 0-25)	* (* 0-25)	< 100	> 1000		O=C(NCCc1cccnc1)c1ccc(-c2cccc3nc(NC(=O)C4CC4)nn23)cc1 [Compound 124, 4-(2-(cyclopropanecarboxamido)-[1,2,4]triazolo[1,5-a]pyridin-5-yl)-N-(2-(pyridin-3-yl)ethyl)benzamide]
> 1000	*** (*** 51-75)	**** (**** 76-100)	< 100		101 to 500	O=C(Nc1cccnc1)c1ccc(-c2cccc3nc(NC(=O)C4CC4)nn23)cc1 [Compound 206, 4-[2-(Cyclopropanecarbonyl-amino)-[1,2,4]triazolo[1,5-a]pyridin-5-yl]-N-pyridin-3-yl-benzamide]
> 1000	*** (*** 51-75)	**** (**** 76-100)	< 100	> 1000		O=C(Nc1nc2cccc(-c3ccc(NS(=O)(=O)c4cccnc4)cc3)n2n1)C1CC1 [Compound 64, N-(5-(4-(pyridine-3-sulfonamido)phenyl)-[1,2,4]triazolo[1,5-a]pyridin-2-yl)cyclopropanecarboxamide]
> 1000	* (* 0-25)	* (* 0-25)	< 100	> 1000		O=C(Nc1nc2cccc(-c3ccc(NCCc4ccccc4)nc3)n2n1)C1CC1 [Compound 123, N-(5-(6-(phenethylamino)pyridin-3-yl)-[1,2,4]triazolo[1,5-a]pyridin-2-yl)cyclopropanecarboxamide]
> 1000	* (* 0-25)	* (* 0-25)	< 100	> 1000		O=C(Nc1nc2cccc(-c3ccc(C(=O)N4CCCC(c5ccccc5)C4)cc3)n2n1)C1CC1 (stereo not drawn) [Compound 169, N-(5-(4-(3-phenylpiperidine-1-carbonyl)phenyl)-[1,2,4]triazolo[1,5-a]pyridin-2-yl)cyclopropanecarboxamide]
	* (* 0-25)	* (* 0-25)	101 to 500		< 100	O=C(Nc1nc[nH]n1)c1ccc(-c2cccc3nc(NC(=O)C4CC4)nn23)cc1 [Compound 331, 4-[2-(Cyclopropanecarbonyl-amino)-[1,2,4]triazolo[1,5-a]pyridin-5-yl]-N-(1H-1,2,4-triazol-3-yl)-benzamide]
	**** (**** 76-100)	**** (**** 76-100)	101 to 500			O=C(NC1CC1)c1ccc(-c2cccc3nc(NC(=O)C4CC4)nn23)cc1 [Compound 11, 4-(2-(cyclopropanecarboxamido)-[1,2,4]triazolo[1,5-a]pyridin-5-yl)-N-cyclopropylbenzamide]
> 1000	* (* 0-25)	* (* 0-25)	< 100			CN(Cc1ccccc1)c1ccc(-c2cccc3nc(NC(=O)C4CC4)nn23)cc1 [Compound 157, N-(5-(4-(benzyl(methyl)amino)phenyl)-[1,2,4]triazolo[1,5-a]pyridin-2-yl)cyclopropanecarboxamide]
> 1000	*** (*** 51-75)	* (* 0-25)	< 100		101 to 500	COc1ccc(NC(=O)c2ccc(-c3cccc4nc(NC(=O)C5CC5)nn34)cc2)cn1 [Compound 203, 4-[2-(Cyclopropanecarbonyl-amino)-[1,2,4]triazolo[1,5-a]pyridin-5-yl]-N-(6-methoxy-pyridin-3-yl)-benzamide]
